The values below are quoted from earlier work in US20040091555A1 (priority 2003, published 2004).

The subject of this data set is hepatocellular carcinoma. Conditions: phase II clinical trials, patients with hepatocellular carcinoma.

As for `CC(=O)O[C@H]1C(=O)[C@@]2(C)[C@H]([C@H](OC(=O)c3ccccc3)[C@]3(O)C[C@H](OC(=O)[C@H](O)[C@@H](NC(=O)c4ccccc4)c4ccccc4)C(C)=C1C3(C)C)[C@]1(OC(C)=O)CO[C@@H]1C[C@@H]2O` [paclitaxel], the “efficacy on hepatocellular carcinoma” value is given as “no significant efficacy on hepatocellular carcinoma”.
